Measurements reported in patent publication US20240190950A1, “METHOD OF TREATING DISEASES USING GREMLIN1 ANTAGONISTS” (SHANGHAI JIAO TONG UNIVERSITY, priority 2021, published 2024).

Legend:
Assay type in all cases: cell-based, human
[1] = test system: FGFR1/MEK/ERK signaling pathway; assay: FGFR1/MEK/ERK phosphorylation in PCa cell lines (immunoblotting)
Experimental: In order to test whether Gremlin1 promoted the FGFR-MAPK signaling, we first performed analysis of the expression levels of the four FGFRs in CRPC patients. […] We treated LNCaP and PC3 with GREM1 in different concentrations (1 ng/ml, 10 ng/ml, 100 ng/ml) and examined phosphorylation levels of FGFR1, MEK and ERK.
(§1) MAPK signaling can be activated through many membrane receptors besides FGFR. To test whether the activation of MAPK pathway by GREM1 was via FGFR, we constructed a FGFR1 knockout LNCaP subline by the CRISPR/Cas9 method. […] To further test whether the tumor promoting effect of GREM1 was through FGFR, we utilized small molecule inhibitors of FGFR or EGFR.
14E3 was tested to target GREM1 in human PCa.

[2] = test system: LNCaP cells; assay: GREM1-promoted PCa cell proliferation and sphere formation with FGFR1/MEK inhibitors or BMP4
Excerpt: as §1

[3] = test system: GREM1 expression in LNCaP cells; assay: Regulation of GREM1 expression by AR agonist/antagonist in LNCaP cells (q-PCR, immunoblot, luciferase reporter); settings: R1881 1 nM, enzalutamide 10 μg/ml
Excerpt: AR plays a central role in PCa. To assess the relationship between Gremlin1 and AR signaling, we performed further IHC staining for Gremlin1 and PSA, a classic downstream target of AR, on sections of CRPC specimens. […] In addition, we detected a significant increase of GREM1 in a castration resistant LNCaP cell line (termed as LNCaP R), which was derived from xenograft LNCaP tumors implanted in castrated mice, compared to a control LNCaP cell line generated from xenografts in intact mice (FIG. 2A). We then asked whether the expression of GREM1 was regulated by AR signaling. We utilized an AR expressing lentivirus or the CRISPR/Cas9 method to achieve AR upregulation (FIG. 2B) or knockout in the LNCaP PCa cell line (FIG. 2D). […] This conclusion was supported by AR agonist R1881 and antagonist Enzalutamide treatment experiments (FIG. 1D, 1E).
Additionally, we carried out a luciferase reporter assay.

Compound | activation of MAPK/FGFR1 signaling axis by GREM1 in presence of inhibitor ([1]; inhibitor 1 μM, Gremlin1 100 ng/ml, PC3 and LNCaP-resistance cells) | proliferation promoting role of GREM1 [2] | sphere-formation promoting role of GREM1 [2] | GREM1 mRNA transcription [3] | GREM1 promoter driven luciferase activity [3] | Gremlin1 protein level [3] | time of highest MAPK signaling activation ([1]; FGF 20 ng/ml, PC3 and LNCaP cells, quickly diminished afterwards)
CCN1CCN(c2ccc(Nc3cc(N(C)C(=O)Nc4c(Cl)c(OC)cc(OC)c4Cl)ncn3)cc2)CC1 [BGJ398, reference compound] | attenuated | significantly compromised | significantly compromised |  |  |  | 
C[C@]1(O)CC[C@H]2[C@@H]3CCC4=CC(=O)CCC4=C3C=C[C@@]21C [R1881] |  |  |  | downregulated | greatly inhibited | downregulated | 
CNC(=O)c1ccc(N2C(=S)N(c3ccc(C#N)c(C(F)(F)F)c3)C(=O)C2(C)C)cc1F [enzalutamide] |  |  |  | significantly increased | enhanced | significantly increased | 
FGF1: known FGFR1 ligand used as a positive control |  |  |  |  |  |  | 10 min
